# Values quoted from earlier work as cited in publication PMC11003925, “Antimicrobial activity and properties of de novo design of short synthetic lipopeptides” (Folia Microbiologica, 2024).
# System: DNA
# Settings: ref Ball et al. [2004]; cited from earlier work
# Excerpt: The majority of the known antimicrobial peptides have been isolated from natural sources. Recently genomic and proteomic methods have also been applied for peptide identification. Knowledge obtained by both classical and novel methods can be used to design the chemical synthesis of new peptide compounds with biological properties. The sequence analysis of natural antimicrobial peptides led to a template, with which it is possible to generate active AMPs (Tossi et al. [1997]; Giangaspero et al. [2001]; Tossi et al. [2000]). We designed three scrambled hexapeptides, one according to this templat ...
compound,measurement,value
"C[C@H](CCC(=O)O)[C@H]1CC[C@H]2[C@@H]3CC[C@@H]4C[C@H](O)CC[C@]4(C)[C@H]3CC[C@]12C [LCA, lithocholic acid]",concentration range in which mutagenic factor,200 to 400 µM
